Laboratory results taken from patent US20130065883A1 (Centro Nacional de Investigaceiones Oncologicas (CNIO), priority 2010, published 2013).
Where two headings read alike, the source gives them in different places. Each block holds one compound with its values, some of them ahead of it.

Experiments:
panel of 24 kinases = test: Kinase selectivity testing (percentage inhibition of 24 kinases at 1 μM); format: biochemical; details: proquinase; for % inhibiton at 1 uM AKT2: AKT2, 1 uM; for % inhibiton at 1 uM CHK1: CHK1, 1 uM; for % inhibiton at 1 uM CK1 Alpha 1: CK1 Alpha 1, 1 uM; for % inhibiton at 1 uM FGFR1: FGFR1, 1 uM; for % inhibiton at 1 uM JAK2: JAK2, 1 uM; for % inhibiton at 1 uM MEK1: MEK1, 1 uM; for % inhibiton at 1 uM PAK1: PAK1, 1 uM; for % inhibiton at 1 uM PDK1: PDK1, 1 uM; for % inhibiton at 1 uM RPS5 KA1: RPS5 KA1, 1 uM; for % inhibiton at 1 uM SGK1: SGK1, 1 uM
[1] = Metabolic stability assay; format: in vitro ADME; details: percentage metabolic stability in human liver microsomes
Experimental: The metabolic stability assay was performed in Wuxi. 1 μM, 15 min. The kinase selectivity testing was performed in ProQinase GmbH, Germany.

tumor cell lines = test: Combination assay (MTT in vitro cell proliferation, combination index); format: cell-based; details: read-out: Chemo EC50
[2] = Homo sapiens, SK-MEL19, SKMel19, melanoma, chemotherapeutic alone
[3] = Homo sapiens, JeKo-1, Jeko-1, Mantle cell lymphoma, chemotherapeutic alone
[4] = Homo sapiens, MV4-11, MV4:11, leukemia (AML), chemotherapeutic alone
[5] = Homo sapiens, MIA PaCa-2, MiaPaca-2, pancreas, chemotherapeutic alone

- EC50 (tumor cell lines; Homo sapiens, A549, A549, lung adenocarcinoma, chemotherapeutic alone): 6 µM
- EC50 (tumor cell lines; [3]): 1 µM
- EC50 (tumor cell lines; [4]): 0.5 µM
- EC50 (tumor cell lines; Homo sapiens, NCI-H1975, NCIH1975, non small cell lung carcinoma, chemotherapeutic alone): 20 µM
- EC50 (tumor cell lines; [2]): 0.5 µM
- EC50 (tumor cell lines; PC3, prostate cancer, chemotherapeutic alone): 10 µM
SMILES: CS(=O)(=O)N1CCN(Cc2cc3nc(-c4cccc5[nH]ncc45)nc(N4CCOCC4)c3s2)CC1 [GDC-0941, reference compound]

- EC50 (tumor cell lines; [5]): 0.05 µM
SMILES: Nc1ccn([C@@H]2O[C@H](CO)[C@@H](O)C2(F)F)c(=O)n1 [Gemcitabine, 4-amino-1-[3,3-difluoro-4-hydroxy-5-(hydroxymethyl)tetrahydrofuran-2-yl]-1H-pyrimidin-2-one, reference compound]

- EC50 (tumor cell lines; HTC116, colon carcinoma, chemotherapeutic alone): 10 µM
- EC50 (tumor cell lines; [3]): 5 µM
- EC50 (tumor cell lines; [5]): 20 µM
- EC50 (tumor cell lines; [4]): 5 µM
- EC50 (tumor cell lines; Homo sapiens, NCI-H23, NCIH23, non small cell lung carcinoma, chemotherapeutic alone): 10 µM
SMILES: CS(=O)(=O)CCNCc1ccc(-c2ccc3ncnc(Nc4ccc(OCc5cccc(F)c5)c(Cl)c4)c3c2)o1 [lapatinib, N-(3-chloro-4-(3-fluorobenzyloxy)phenyl)-6-(5-((2-(methylsulfonyl)ethylamino)-methyl)furan-2-yl)quinazolin-4-amine, reference compound]

Second part, the compound before the results:

SMILES: FC(F)(F)Oc1cccc(-n2nnc3ccc(NC4CC5(CCNCC5)C4)nc32)c1 [2-66]
- % inhibiton at 1 uM AKT2 (panel of 24 kinases): 0%
- % inhibiton at 1 uM B_RAF V600E (panel of 24 kinases): 15%
- % inhibiton at 1 uM CDK8 CYCC (panel of 24 kinases): 3%
- % inhibiton at 1 uM CHK1 (panel of 24 kinases): 13%
- % inhibiton at 1 uM CK1 Alpha 1 (panel of 24 kinases): 0%
- % inhibiton at 1 uM DYRK 1A (panel of 24 kinases): 30%
- % inhibiton at 1 uM EGF_R (panel of 24 kinases): 18%
- % inhibiton at 1 uM FAK (panel of 24 kinases): 19%
- % inhibiton at 1 uM FGFR1 (panel of 24 kinases): 4%
- % inhibiton at 1 uM IGF1_R (panel of 24 kinases): 16%
- % inhibiton at 1 uM IKK BETA (panel of 24 kinases): 5%
- % inhibiton at 1 uM INS_R (panel of 24 kinases): 7%
- % inhibiton at 1 uM JAK2 (panel of 24 kinases): 3%
- % inhibiton at 1 uM KIT (panel of 24 kinases): 30%
- % inhibiton at 1 uM MEK1 (panel of 24 kinases): 0%
- % inhibiton at 1 uM MET (panel of 24 kinases): 3%
- % inhibiton at 1 uM PAK1 (panel of 24 kinases): 11%
- % inhibiton at 1 uM PDGFR Alpha (panel of 24 kinases): 12%
- % inhibiton at 1 uM PDK1 (panel of 24 kinases): 4%
- % inhibiton at 1 uM RPS5 KA1 (panel of 24 kinases): 19%
- % inhibiton at 1 uM SGK1 (panel of 24 kinases): 2%
- % inhibiton at 1 uM SRC (panel of 24 kinases): 28%
- Stability in HLM [1]: 91.1%

SMILES: FC(F)(F)Oc1cccc(-n2nnc3ccc(NCC4CC5(CCNCC5)C4)nc32)c1 [2-67]
- % inhibiton at 1 uM AKT2 (panel of 24 kinases): 0%
- % inhibiton at 1 uM B_RAF V600E (panel of 24 kinases): 11%
- % inhibiton at 1 uM CDK8 CYCC (panel of 24 kinases): 0%
- % inhibiton at 1 uM CHK1 (panel of 24 kinases): 11%
- % inhibiton at 1 uM CK1 Alpha 1 (panel of 24 kinases): 0%
- % inhibiton at 1 uM DYRK 1A (panel of 24 kinases): 18%
- % inhibiton at 1 uM EGF_R (panel of 24 kinases): 13%
- % inhibiton at 1 uM FAK (panel of 24 kinases): 27%
- % inhibiton at 1 uM FGFR1 (panel of 24 kinases): 0%
- % inhibiton at 1 uM IGF1_R (panel of 24 kinases): 25%
- % inhibiton at 1 uM IKK BETA (panel of 24 kinases): 0%
- % inhibiton at 1 uM INS_R (panel of 24 kinases): 5%
- % inhibiton at 1 uM JAK2 (panel of 24 kinases): 0%
- % inhibiton at 1 uM KIT (panel of 24 kinases): 58%
- % inhibiton at 1 uM MEK1 (panel of 24 kinases): 0%
- % inhibiton at 1 uM MET (panel of 24 kinases): 2%
- % inhibiton at 1 uM PAK1 (panel of 24 kinases): 3%
- % inhibiton at 1 uM PDGFR Alpha (panel of 24 kinases): 49%
- % inhibiton at 1 uM PDK1 (panel of 24 kinases): 0%
- % inhibiton at 1 uM RPS5 KA1 (panel of 24 kinases): 11%
- % inhibiton at 1 uM SGK1 (panel of 24 kinases): 7%
- % inhibiton at 1 uM SRC (panel of 24 kinases): 16%
- Stability in HLM [1]: 92.15%

SMILES: OCCn1cc(-c2ccc3c(c2)CC/C3=N\O)c(-c2ccncc2)n1 [GDC-0879, reference compound]
- EC50 (tumor cell lines; [2]): 0.3 µM

SMILES: O=C(NOC[C@H](O)CO)c1ccc(F)c(F)c1Nc1ccc(I)cc1F [PD-0325901, (R)—N-(2,3-dihydroxypropoxy)-3,4-difluoro-2-(2-fluoro-4-iodophenylamino)benz-amide, reference compound]
- EC50 (tumor cell lines): 1.25 µM
